Data as given in ChEMBL document CHEMBL5608197, “Optimization of pyrazolopyridine 4-carboxamides with potent antimalarial activity for which resistance is associated with the P. falciparum transporter ABCI3” (Eur J Med Chem, 2024).
Converted amounts (≈) assume the structure as drawn. The source made the active and inactive calls. The calls are words filed in the database; no cut-off is given here.

Key:
Plasmodium falciparum [1] = assay: Antiplasmodial activity against drug-resistant recrudescent Plasmodium falciparum Dd2-B2 in 2x10^5 bulk culture selection assessed as inhibition of parasite growth incubated for 72 hrs by flow cytometry; format: functional, organism-based
CYP2C19 = CYP2C19 (Homo sapiens, UniProt P33261); assay: Inhibition of CYP2C19 (unknown origin) at 10 uM relative to control; format: ADME
Plasmodium falciparum [2] = assay: Antiplasmodial activity against Plasmodium falciparum Dd2-B2 assessed as inhibition of parasite growth incubated for 72 hrs by flow cytometry; format: functional, organism-based
Plasmodium falciparum [3] = assay: Antiplasmodial activity against drug-resistant recrudescent Plasmodium falciparum Dd2-B2 in 2x10^7 bulk culture selection assessed as inhibition of parasite growth incubated for 72 hrs by flow cytometry; format: functional, organism-based
CYP2C9 [4] = biological target: T1, CYP2C9 (Homo sapiens, UniProt P11712); assay: Inhibition of CYP2C9 (unknown origin) at 1 uM relative to control; format: ADME
CYP2C9 [5] = biological target: T1, CYP2C9; assay: Inhibition of CYP2C9 (unknown origin) at 10 uM relative to control; format: ADME
Plasmodium falciparum [6] = assay: Antiplasmodial activity against multidrig-resistant Plasmodium falciparum Dd2 harboring eEF2Y-I86N mutant infected in erythrocytes assessed as inhibition of parasite growth incubated for 72 hrs by [3H]hypoxanthine incorporation based microbeta counting analysis; format: functional, organism-based; conditions: Dd2, Erythrocyte
CYP2D6 = CYP2D6 (Homo sapiens, UniProt P10635); assay: Inhibition of CYP2D6 (unknown origin) at 1 uM relative to control; format: ADME
[7] = biological target: Voltage-gated inwardly rectifying potassium channel KCNH2 (Homo sapiens, UniProt Q12809); assay: Inhibition of hERG expressed in CHO cells by patch clamp method; format: toxicity, cell-based
Plasmodium falciparum [8] = assay: Antiplasmodial activity against drug-resistant Plasmodium falciparum Dd2-B2 in 2x10^5 bulk culture selection assessed as concentration required to complete parasite killing measured on day 5 under initial selection drug pressure concentration of 3XEC50 by Minimum inoculum of resistance analysis; format: functional; conditions: time 5 day
Plasmodium falciparum [9] = assay: Antiplasmodial activity against ring stage of Plasmodium falciparum 3D7 expressing ABCI3-HAreg assessed as inhibition of parasite proliferation incubated for 72 hrs in presence of ABCI3 inhibitor, GlcN by SYBR dye based flow cytometry; format: functional, organism-based; conditions: 3D7, 72 h
Plasmodium falciparum [10] = assay: Antiplasmodial activity against multidrug-resistant Plasmodium falciparum K1 infected in erythrocytes assessed as inhibition of parasite growth incubated for 72 hrs by [3H]hypoxanthine incorporation based microbeta counting analysis; format: functional, organism-based; conditions: K1, Erythrocyte
[11] = Aqueous solubility of the compound in PBS buffer at pH 7.4 at 200 uM incubated for 2 hrs under shaking condition by miniaturized shake flask method; format: physicochemical
[12] = Ratio of EC50 for antiplasmodial activity against ring stage of Plasmodium falciparum 3D7 expressing ABCI3-HAreg in absence of ABCI3 inhibitor, GlcN to EC50 for antiplasmodial activity against ring stage of Plasmodium falciparum 3D7 expressing ABCI3-HAreg in presence of ABCI3 inhibitor, GlcN; format: functional
[13] = Permeability of the compound across apical to basolateral side in human Caco-2 cells at pH 7.4; format: ADME, cell-based; conditions: Caco-2, pH 7.4, read-out: permeability
Plasmodium falciparum [14] = assay: Antiplasmodial activity against asexual blood stage of Plasmodium falciparum 3D7 assessed as inhibition of parasite growth incubated for 72 hrs by LDH assay; format: functional, organism-based; conditions: 3D7, 72 h
[15] = Permeability of the compound across basolateral to apical side in human Caco-2 cells at pH 7.4; format: ADME, cell-based; conditions: Caco-2, pH 7.4, read-out: permeability
Plasmodium falciparum [16] = assay: Antiplasmodial activity against multidrug-resistant Plasmodium falciparum NF54 infected in erythrocytes assessed as inhibition of parasite growth incubated for 72 hrs by [3H]hypoxanthine incorporation based microbeta counting analysis; format: functional, organism-based; conditions: NF54, Erythrocyte
CYP3A4 = CYP3A4 (Homo sapiens, UniProt P08684); assay: Inhibition of CYP3A4 (unknown origin) at 10 uM relative to control; format: ADME
Plasmodium falciparum [17] = assay: Antimalarial activity against asexual stage of Plasmodium falciparum 3D7 infected in erythrocytes assessed as lag phase of parasite growth at 10XEC50 incubated for 24 hrs followed by drug removal and incubation for 48 hrs with CFDA-SE labelled fresh erythrocytes by Hoechst 33342 staining based two-color flow cytometry; format: functional, organism-based; conditions: Erythrocyte
Plasmodium falciparum [18] = assay: Antiplasmodial activity against multidrug-resistant Plasmodium falciparum Dd2 harboring CARL-I1139K mutant infected in erythrocytes assessed as inhibition of parasite growth incubated for 72 hrs by [3H]hypoxanthine incorporation based microbeta counting analysis; format: functional, organism-based; conditions: Dd2, Erythrocyte
Plasmodium falciparum [19] = assay: Antiplasmodial activity against multidrug-resistant Plasmodium falciparum Cam3.1 infected in erythrocytes assessed as inhibition of parasite growth incubated for 72 hrs by [3H]hypoxanthine incorporation based microbeta counting analysis; format: functional, organism-based; conditions: Cam3.1, Erythrocyte
Plasmodium falciparum [20] = assay: Resistance ratio of EC50 for antiplasmodial activity against drug-resistant recrudescent Plasmodium falciparum Dd2-B2 in 2x10^7 bulk culture selection measured on day 15 under initial selection drug pressure concentration of 3XEC50 to EC50 for antiplasmodial activity against Plasmodium flaciparum Dd2 measured after 72 hrs; format: functional
Plasmodium falciparum [21] = assay: Antiplasmodial activity against ring stage of Plasmodium falciparum 3D7 expressing ABCI3-HAreg assessed as inhibition of parasite proliferation incubated for 72 hrs in absence of ABCI3 inhibitor, GlcN by SYBR dye based flow cytometry; format: functional, organism-based; conditions: 3D7, 72 h
Plasmodium falciparum [22] = assay: Resistance ratio of EC90 for antiplasmodial activity against drug-resistant recrudescent Plasmodium falciparum Dd2-B2 in 2x10^7 bulk culture selection measured on day 15 under initial selection drug pressure concentration of 3XEC50 to EC90 for antiplasmodial activity against Plasmodium flaciparum Dd2 measured after 72 hrs; format: functional
Plasmodium falciparum [23] = assay: Antimalarial activity against asexual stage of Plasmodium falciparum 3D7 infected in erythrocytes assessed as parasite killing at 10XEC50 incubated for 48 hrs with compound renewal for every 24 hrs followed by drug removal and incubation for 48 hrs with CFDA-SE labelled fresh erythrocytes by Hoechst 33342 staining based two-color flow cytometry; format: functional, organism-based; conditions: Erythrocyte
Plasmodium falciparum [24] = assay: Antiplasmodial activity against multidrug-resistant Plasmodium falciparum Dd2 harboring PI4K-S743F mutant infected in erythrocytes assessed as inhibition of parasite growth incubated for 72 hrs by [3H]hypoxanthine incorporation based microbeta counting analysis; format: functional, organism-based; conditions: Dd2, Erythrocyte
[25] = Cytotoxicity against human HepG2 cells assessed as inhibition of cell growth incubated for 48 hrs by CellTiter-Glo luminescence assay; format: toxicity, cell-based
[26] = Efflux ratio of permeability across basolateral to apical side over apical to basolateral side in human Caco-2 cells at pH 7.4; format: ADME, cell-based; conditions: Caco-2, pH 7.4
Plasmodium falciparum [27] = assay: Antiplasmodial activity against multidrug-resistant Plasmodium falciparum 7G8 infected in erythrocytes assessed as inhibition of parasite growth incubated for 72 hrs by [3H]hypoxanthine incorporation based microbeta counting analysis; format: functional, organism-based; conditions: 7G8, Erythrocyte

T1 sequence (P11712 whole entry): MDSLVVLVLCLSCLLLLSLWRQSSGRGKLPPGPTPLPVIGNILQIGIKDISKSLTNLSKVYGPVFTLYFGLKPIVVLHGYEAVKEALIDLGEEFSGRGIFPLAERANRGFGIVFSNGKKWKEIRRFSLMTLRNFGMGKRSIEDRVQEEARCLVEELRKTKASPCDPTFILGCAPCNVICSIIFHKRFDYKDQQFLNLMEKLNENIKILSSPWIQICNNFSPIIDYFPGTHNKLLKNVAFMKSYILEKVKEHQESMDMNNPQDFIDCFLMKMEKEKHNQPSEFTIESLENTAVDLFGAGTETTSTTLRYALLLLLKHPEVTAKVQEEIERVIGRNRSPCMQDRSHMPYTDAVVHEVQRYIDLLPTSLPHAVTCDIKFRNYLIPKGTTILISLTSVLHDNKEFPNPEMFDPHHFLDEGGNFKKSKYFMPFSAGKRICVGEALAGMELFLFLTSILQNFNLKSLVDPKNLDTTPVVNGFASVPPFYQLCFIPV
Chain of Voltage-gated inwardly rectifying potassium channel KCNH2 (Q12809 whole entry): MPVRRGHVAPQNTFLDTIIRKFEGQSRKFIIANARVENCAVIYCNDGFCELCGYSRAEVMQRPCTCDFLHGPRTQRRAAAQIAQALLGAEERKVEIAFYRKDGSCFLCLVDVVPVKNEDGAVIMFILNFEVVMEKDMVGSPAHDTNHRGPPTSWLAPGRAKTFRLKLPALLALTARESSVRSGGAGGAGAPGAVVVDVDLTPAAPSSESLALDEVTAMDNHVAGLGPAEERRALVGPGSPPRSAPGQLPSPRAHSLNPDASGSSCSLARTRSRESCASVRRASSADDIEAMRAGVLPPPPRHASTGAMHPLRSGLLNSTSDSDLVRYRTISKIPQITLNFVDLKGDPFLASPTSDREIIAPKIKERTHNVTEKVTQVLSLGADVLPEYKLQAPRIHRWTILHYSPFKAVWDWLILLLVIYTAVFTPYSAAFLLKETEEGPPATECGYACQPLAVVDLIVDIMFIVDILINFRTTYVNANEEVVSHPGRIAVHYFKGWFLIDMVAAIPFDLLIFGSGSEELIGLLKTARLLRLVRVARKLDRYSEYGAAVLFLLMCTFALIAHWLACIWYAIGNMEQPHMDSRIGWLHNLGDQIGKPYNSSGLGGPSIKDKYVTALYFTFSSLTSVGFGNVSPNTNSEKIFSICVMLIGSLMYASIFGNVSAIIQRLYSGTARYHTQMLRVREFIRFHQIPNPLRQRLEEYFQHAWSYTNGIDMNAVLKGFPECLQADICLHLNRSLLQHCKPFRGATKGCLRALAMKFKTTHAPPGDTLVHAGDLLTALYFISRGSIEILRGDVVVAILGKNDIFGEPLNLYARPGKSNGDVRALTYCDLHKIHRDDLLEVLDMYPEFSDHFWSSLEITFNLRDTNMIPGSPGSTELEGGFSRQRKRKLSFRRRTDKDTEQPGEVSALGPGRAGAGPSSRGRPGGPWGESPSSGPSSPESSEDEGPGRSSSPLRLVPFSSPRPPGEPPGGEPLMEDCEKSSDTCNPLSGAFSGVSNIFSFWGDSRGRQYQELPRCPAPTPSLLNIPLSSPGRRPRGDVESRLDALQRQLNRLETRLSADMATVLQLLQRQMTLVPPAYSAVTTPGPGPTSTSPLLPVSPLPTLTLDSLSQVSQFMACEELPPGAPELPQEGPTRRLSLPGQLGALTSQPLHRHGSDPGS
Chain of CYP2C19 (P33261 whole entry): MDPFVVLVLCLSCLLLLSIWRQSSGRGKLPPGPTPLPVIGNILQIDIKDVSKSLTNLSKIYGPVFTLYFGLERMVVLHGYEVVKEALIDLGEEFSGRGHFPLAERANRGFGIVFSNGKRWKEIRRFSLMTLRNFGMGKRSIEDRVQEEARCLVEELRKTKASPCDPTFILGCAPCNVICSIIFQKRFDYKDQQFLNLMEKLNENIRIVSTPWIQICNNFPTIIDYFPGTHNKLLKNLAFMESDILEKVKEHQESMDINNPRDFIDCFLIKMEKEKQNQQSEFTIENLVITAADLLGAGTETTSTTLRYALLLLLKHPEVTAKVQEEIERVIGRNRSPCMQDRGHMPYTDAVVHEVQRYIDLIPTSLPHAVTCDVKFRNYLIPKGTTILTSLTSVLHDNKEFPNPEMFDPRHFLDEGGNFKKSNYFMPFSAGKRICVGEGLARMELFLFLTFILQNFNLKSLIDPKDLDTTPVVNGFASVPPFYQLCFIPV
Chain of CYP3A4 (P08684 whole entry): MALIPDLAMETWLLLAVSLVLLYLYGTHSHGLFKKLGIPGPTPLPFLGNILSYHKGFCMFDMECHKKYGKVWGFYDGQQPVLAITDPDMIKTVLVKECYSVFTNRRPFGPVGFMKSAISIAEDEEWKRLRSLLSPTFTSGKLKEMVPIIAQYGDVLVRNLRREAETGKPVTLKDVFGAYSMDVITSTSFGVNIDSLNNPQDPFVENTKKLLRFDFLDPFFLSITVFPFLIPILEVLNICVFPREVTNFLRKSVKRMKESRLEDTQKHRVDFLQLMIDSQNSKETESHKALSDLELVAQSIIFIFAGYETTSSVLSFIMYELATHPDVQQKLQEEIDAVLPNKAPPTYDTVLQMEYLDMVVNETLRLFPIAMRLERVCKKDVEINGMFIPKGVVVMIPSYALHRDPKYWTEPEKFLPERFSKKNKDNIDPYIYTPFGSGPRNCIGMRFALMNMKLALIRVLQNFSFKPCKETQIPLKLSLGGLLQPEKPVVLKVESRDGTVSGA
Chain of CYP2D6 (P10635 whole entry): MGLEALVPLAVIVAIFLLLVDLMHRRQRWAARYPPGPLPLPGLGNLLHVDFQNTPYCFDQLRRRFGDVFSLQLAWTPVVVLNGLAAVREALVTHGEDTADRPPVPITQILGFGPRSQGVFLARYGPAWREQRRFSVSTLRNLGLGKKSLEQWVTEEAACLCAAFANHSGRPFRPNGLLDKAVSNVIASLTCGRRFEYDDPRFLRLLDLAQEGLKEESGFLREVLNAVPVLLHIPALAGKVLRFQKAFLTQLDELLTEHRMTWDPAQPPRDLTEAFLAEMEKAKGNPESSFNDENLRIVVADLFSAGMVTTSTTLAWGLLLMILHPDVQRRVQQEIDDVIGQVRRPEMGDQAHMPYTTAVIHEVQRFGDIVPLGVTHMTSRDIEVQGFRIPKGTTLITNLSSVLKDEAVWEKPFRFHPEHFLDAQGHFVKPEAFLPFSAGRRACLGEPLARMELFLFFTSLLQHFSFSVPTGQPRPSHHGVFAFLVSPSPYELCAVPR

Cc1nn(C(C)(C)C)c2nc(C3CC3)cc(C(=O)N3CCOc4ccncc43)c12
EC50 (Plasmodium falciparum [1]; Dd2-B2, 72 h): 28.3 nM
EC90 (Plasmodium falciparum [1]; Dd2-B2, time 72 hrs): 68.3 nM
inhibition at 10 µM (CYP2C19): 17.4%
EC50 (Plasmodium falciparum [2]; Dd2-B2, 72 h): 6.8 nM
EC90 (Plasmodium falciparum [2]; Dd2-B2, time 72 hrs): 12.3 nM
EC50 (Plasmodium falciparum [3]; Dd2-B2, 72 h): 37.5 nM
EC90 (Plasmodium falciparum [3]; Dd2-B2, time 72 hrs): 68.9 nM
inhibition at 1 µM (CYP2C9 [4]): 12.8%
inhibition at 10 µM (CYP2C9 [5]): 57.5%
EC50 (Plasmodium falciparum [6]): 7 nM
inhibition at 1 µM (CYP2D6): 43.8%
EC50 [7]: 16700 nM
Activity (Plasmodium falciparum [8]): 28 nM
EC50 (Plasmodium falciparum [9]): 0.8 nM
EC50 (Plasmodium falciparum [10]): 9 nM
solubility thermodynamic at 2 h, 200 µM [11]: 69 µM (≈ 27 µg/mL)
Ratio EC50 [12]: 3.4
Papp A→B [13]: 171 nm/s
EC50 (Plasmodium falciparum [14]): 16 nM
Papp B→A [15]: 237 nm/s
EC50 (Plasmodium falciparum [16]): 3 nM
inhibition at 10 µM (CYP3A4): 90.5%
Activity (Plasmodium falciparum [17]): Active
EC50 (Plasmodium falciparum [18]): 5 nM
EC50 (Plasmodium falciparum [19]): 6 nM
Ratio EC50 (Plasmodium falciparum [20]): 5
EC50 (Plasmodium falciparum [21]): 2.7 nM
Ratio (Plasmodium falciparum [22]): 5
Activity (Plasmodium falciparum [23]): Active
EC50 (Plasmodium falciparum [24]): 6 nM
CC50 at 48 h [25]: 4810 nM
efflux ratio [26]: 1.4
EC50 (Plasmodium falciparum [27]): 8 nM
